In assay [1] the target is T1, Replicase polyprotein 1ab (Severe acute respiratory syndrome-related coronavirus, UniProt P0C6X7). The assay is described as follows: Inhibition of SARS coronavirus helicase assessed as duplex-DNA unwinding by FRET based assay.
For assay [2], the target named is T1, Replicase polyprotein 1ab. The assay is described as follows: Inhibition of ATPase activity of SARS coronavirus helicase assessed as phosphate release by malachite green assay.

Structures are written as SMILES.

A word on the IC50: it is the concentration at which inhibition is half-maximal. `O=c1c(O)c(-c2ccc3c(c2)OCO3)oc2cc(OCc3cccc(Cl)c3)cc(O)c12`: the IC50 in assay [1] was 15.4 µM; in assay [2], greater than 50 µM.
In the same order, the values of `N#Cc1cccc(COc2cc(O)c3c(=O)c(O)c(-c4ccc5c(c4)OCO5)oc3c2)c1` are 8.1 µM and 42.9 µM.
In the same order, the values of `O=c1c(O)c(-c2ccc(O)c(O)c2)oc2cc(OCc3cccc(Cl)c3)cc(O)c12` are 5.2 µM and greater than 50 µM.
The corresponding values for `N#Cc1cccc(CNCc2cc(=O)c3c(O)c(O)ccc3o2)c1` are greater than 50 µM and greater than 50 µM.
`O=c1cc(CNCc2ccc(Cl)cc2)oc2ccc(O)c(O)c12`: the IC50 in assay [1] and in assay [2] was greater than 50 µM throughout.
Turning to `O=c1cc(CNCc2cccc(Cl)c2)oc2ccc(O)c(O)c12`, the IC50 in assay [1] and in assay [2] was greater than 50 µM each time.
For the molecule `O=c1c(O)c(-c2ccc3c(c2)OCO3)oc2cc(OCc3ccc(Cl)cc3)cc(O)c12`, the results for the IC50 in assay [1] and in assay [2] were 9.3 µM and greater than 50 µM, respectively.
In the same order, the values of `O=c1c(O)c(-c2ccc(O)c(O)c2)oc2cc(OCc3ccc(Cl)cc3)cc(O)c12` are 4.1 µM and 20.9 µM.
The corresponding values for `O=c1c(O)c(-c2ccc3c(c2)OCO3)oc2cc(O)cc(O)c12` are greater than 50 µM and greater than 50 µM.
In the same order, the values of `N#Cc1cccc(COc2cc(O)c3c(=O)c(O)c(-c4ccc(O)c(O)c4)oc3c2)c1` are 2.7 µM and 25.4 µM.

For the origin of these results see ChEMBL document CHEMBL1153502, “Investigation of the pharmacophore space of Severe Acute Respiratory Syndrome coronavirus (SARS-CoV) NTPase/helicase by dihydroxychromone derivatives” (Bioorg Med Chem Lett, 2009).
